# Experimental data reported in patent publication US20040219102A1, “Compositions for drug delivery” (priority 2003, published 2004).
# Read-outs that look alike come from different tables or passages of the source.
# Columns and labels:
# JJ5 Breast Cancer cells [1] = experiment: Growth inhibition assay of EGF-111In-labeled transferrin composition against JJ5 breast cancer cells; format: cell-based, human; details: cultured 4 days
# Procedure: JJ5 breast cancer cells (prepared from BCBM JJ5) expressing approximately 10^6 epidermal growth factor receptors/cell were incubated with EGF-^111In-labeled transferrin composition, unlabeled hEGF or ^111In-oxine, centrifuged to remove free ligand, then assayed and seeded (10^6 cells/dish) into 35 mm culture dishes.
# JJ5 Breast Cancer cells [2] = experiment: Cytotoxicity (colony-forming) assay of EGF-111In-labeled transferrin composition against JJ5 breast cancer cells; format: cell-based, human; details: 14 days
# Procedure: JJ5 breast cancer cells were incubated with increasing amounts EGF-^111In-labeled transferrin composition or ^111In-oxine, centrifuged to remove free ligand, assayed and then seeded into 50 mm culture dishes. […] The growth medium was removed and the colonies were stained with methylene blue (1% in a 1:1 mixture of ethanol and water) then washed twice.
# Using a colony-forming assay, the radiotoxicity of internalization for JJ5 breast cancer cells was evaluated.
# JJ5 Breast Cancer cells [3] = details: cultured 4 days
# Procedure: The number of cells seeded was varied from 3×10^4 to 3×10^6 cells to obtain approximately 350 viable colonies/dish taking into account the plating efficiency and the expected level of cytotoxicity. Control dishes contained JJ5 breast cancer cells which were incubated with normal saline. Growth medium was added and the cells were cultured at 37° C./5% CO2 for 4 days. The growth medium was removed and the colonies were stained with methylene blue (1% in a 1:1 mixture of ethanol and water) then washed twice. The number of colonies per dish was counted using a manual colony counter (Manostat Corp). The plating efficiency was calculated by dividing the number of colonies observed by the number of cells seeded in each dish.
# JJ5 Breast Cancer cells [4] = experiment: Binding of EGF-111In-labeled transferrin composition to breast cancer cells; design: species or system human
# Text: For the normal breast cell line HBL-100, 8000 EGFR/cell has been reported. The expression of EGFR in breast cancer cell lines has a reported range of 800 EGFR/cell for MCF-7 cells to 10^6 EGFR/cell for MDA-MB-468 cells. […] Utilizing the Auger electron emitter ^111In was used in the initial experiments to illustrate the utility of the invention using EGF-^111In-labeled transferrin compositions. […] The cells were transferred to a centrifuge tube and centrifuged. The cell pellet was separated from the supernatant and counted in a g-scintillation counter to determine bound (B) and free (F) radioactivity. Non-specific binding was determined by conducting the assay in 100 nM hEGF. […] Internalized fraction was measured by determining the proportion of radioactivity which could not be displaced from the cell surface by 100 nM hEGF. Cell-associated binding (surface-binding and intracellular accumulation) was expressed as a percentage of medium radioactivity bound per mg of cell study protein. […] EGF-^111In-labeled transferrin composition was rapidly bound by the breast cancer cells and retained for at least 24 hours. Over a 24 hour period at 37° C., <8% was lost from the cells in vitro.
compound,measurement,setting,value
"[In+3].[O-]c1cccc2cccnc12.[O-]c1cccc2cccnc12.[O-]c1cccc2cccnc12 [^111In-oxine, reference compound]",growth inhibition of the JJ5 cells compared to the medium control,JJ5 Breast Cancer cells [1]; 3.5 pCi/cell,91%
same,cell killing,JJ5 Breast Cancer cells [2]; at <6 pCi/cell,greater than 99%
COc1cccc2c1C(=O)c1c(O)c3c(c(O)c1C2=O)C[C@@](O)(C(=O)CO)C[C@@H]3O[C@H]1C[C@H](N)[C@H](O)[C@H](C)O1 [Doxorubicin],growth inhibition of the JJ5 cells compared to the medium control,JJ5 Breast Cancer cells [3],95%
EGF-^111In-labeled transferrin composition,time retained by the breast cancer cells,JJ5 Breast Cancer cells [4]; 37° C.,at least 24 hours
same,affinity constant for binding to JJ5 cells,"JJ5 Breast Cancer cells [4]; 37° C., 30 minutes, non-specific binding in 100 nM hEGF",8e+08 L/mol
same,number of binding sites,JJ5 Breast Cancer cells [4]; JJ5 cells,2.7×10^6
same,111In radioactivity lost from the cells in vitro,JJ5 Breast Cancer cells [4]; over a 24 hour period at 37° C.,< 8%
same,growth inhibition of the JJ5 cells compared to the medium control,JJ5 Breast Cancer cells [1]; 3.4 pCi/cell,83%
same,reduction in cell survival,JJ5 Breast Cancer cells [2]; 8 pCi/cell,99%
